Data reported in patent US11566007B2, “Ras inhibitors” (Revolution Medicines, Inc., priority 2019, dated 2023).

Key:
Assay type in all cases: biochemical
[1] = target: K-Ras G12C (Homo sapiens (Human), UniProt P01116+P62937, G12C); test: Ras-Raf (BRAF RBD) disruption / FRET / MOA assay, KRAS G12C; conditions: KRAS G12C; Ras-Raf disruption/FRET/MOA assay; read-out: IC50* KRAS G12C FRET data
Method in brief: (§1)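 Compounds, top final concentration 30 μM in 10-point 3-fold series, incubated 3 hours at 25° C with nucleotide-loaded Ras, cyclophilin A and BRAF RBD.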

[2] = target: K-Ras G13C (Homo sapiens (Human), UniProt P01116+P62937, G13C); test: Ras-Raf (BRAF RBD) disruption / FRET / MOA assay, KRAS G13C; conditions: KRAS G13C; Ras-Raf disruption/FRET/MOA assay; read-out: IC50* KRAS G13C FRET data
Chain of K-Ras G13C (P01116-2 other isoform, or with tags, fused parts or gaps G13C): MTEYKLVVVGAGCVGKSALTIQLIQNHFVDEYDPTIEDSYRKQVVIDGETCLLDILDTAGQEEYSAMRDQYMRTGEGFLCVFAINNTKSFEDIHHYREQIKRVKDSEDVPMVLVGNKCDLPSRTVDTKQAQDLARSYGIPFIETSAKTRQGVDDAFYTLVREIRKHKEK
Chain of K-Ras G13C (P62937 whole entry): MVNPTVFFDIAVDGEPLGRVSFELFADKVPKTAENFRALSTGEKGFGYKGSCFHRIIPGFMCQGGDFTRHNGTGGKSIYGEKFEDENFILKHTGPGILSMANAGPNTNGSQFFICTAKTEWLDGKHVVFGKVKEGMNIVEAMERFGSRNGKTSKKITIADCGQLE
Method in brief: as §1

[3] = target: KRAS G12D (Homo sapiens (Human), UniProt P01116+P62937, G12D); test: Ras-Raf (BRAF RBD) disruption / FRET / MOA assay, KRAS G12D; conditions: Ras-Raf disruption/FRET/MOA assay; class symbols; read-out: KRAS G12D FRET data IC50
Chain of KRAS G12D (P01116-2 other isoform, or with tags, fused parts or gaps G12D): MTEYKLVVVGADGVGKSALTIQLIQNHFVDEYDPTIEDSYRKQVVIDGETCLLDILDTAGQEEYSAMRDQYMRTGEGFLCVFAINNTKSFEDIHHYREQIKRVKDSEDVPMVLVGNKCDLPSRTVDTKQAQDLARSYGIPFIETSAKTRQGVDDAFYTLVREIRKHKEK
Chain of KRAS G12D (P62937 whole entry): as the sequence (P62937 whole entry) above
Method in brief: as §1

[4] = target: KRAS G12V (Homo sapiens (Human), UniProt P01116+P62937, G12V); test: Ras-Raf (BRAF RBD) disruption / FRET / MOA assay, KRAS G12V; conditions: read-out: IC50* KRAS G12V FRET data
Chain of KRAS G12V (P01116-2 other isoform, or with tags, fused parts or gaps G12V): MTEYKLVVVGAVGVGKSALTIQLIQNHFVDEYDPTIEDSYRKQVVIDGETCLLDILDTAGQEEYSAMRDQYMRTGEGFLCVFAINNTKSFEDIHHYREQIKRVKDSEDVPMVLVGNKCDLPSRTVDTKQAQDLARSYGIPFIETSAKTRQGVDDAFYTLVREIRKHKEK
Chain of KRAS G12V (P62937 whole entry): as the sequence (P62937 whole entry) above
Method in brief: as §1

[5] = target: KRAS G13D (Homo sapiens (Human), UniProt P01116+P62937, G13D); test: Ras-Raf (BRAF RBD) disruption / FRET / MOA assay, KRAS G13D; conditions: read-out: IC50* KRAS G13D FRET data
Chain of KRAS G13D (P01116-2 other isoform, or with tags, fused parts or gaps G13D): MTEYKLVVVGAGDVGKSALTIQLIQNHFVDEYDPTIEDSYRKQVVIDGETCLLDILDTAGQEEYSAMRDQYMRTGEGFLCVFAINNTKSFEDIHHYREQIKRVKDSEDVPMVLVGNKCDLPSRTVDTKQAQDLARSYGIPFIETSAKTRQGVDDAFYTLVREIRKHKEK
Chain of KRAS G13D (P62937 whole entry): as the sequence (P62937 whole entry) above
Method in brief: as §1

[6] = target: KRAS Q61H (Homo sapiens (Human), UniProt P01116+P62937, Q61H); test: Ras-Raf (BRAF RBD) disruption / FRET / MOA assay, KRAS Q61H; conditions: Ras-Raf disruption/FRET/MOA assay; class symbols; read-out: KRAS Q61H FRET data IC50
Chain of KRAS Q61H (P01116-2 other isoform, or with tags, fused parts or gaps Q61H): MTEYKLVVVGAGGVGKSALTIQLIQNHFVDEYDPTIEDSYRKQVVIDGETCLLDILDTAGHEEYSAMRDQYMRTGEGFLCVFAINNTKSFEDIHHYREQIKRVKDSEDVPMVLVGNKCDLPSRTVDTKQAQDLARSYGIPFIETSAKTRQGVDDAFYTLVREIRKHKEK
Chain of KRAS Q61H (P62937 whole entry): as the sequence (P62937 whole entry) above
Method in brief: (§2)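 TR-FRET disruption of nucleotide-loaded Ras binding to BRAF RBD via compound-driven ternary complex with cyclophilin A. Compound as 10-point 3-fold series from 30 μM final, 3 h at 25° C, then anti-His Eu-W1024 (10 nM) and anti-GST allophycocyanin (50 nM) for 1.5 h. IC50 from decreased FRET ratio versus DMSO.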

[7] = target: NRAS G12C (Homo sapiens (Human), UniProt P01111+P62937, G12C); test: Ras-Raf (BRAF RBD) disruption / FRET / MOA assay, NRAS G12C; conditions: read-out: IC50* NRAS G12C FRET data
Chain of NRAS G12C (P01111 whole entry G12C): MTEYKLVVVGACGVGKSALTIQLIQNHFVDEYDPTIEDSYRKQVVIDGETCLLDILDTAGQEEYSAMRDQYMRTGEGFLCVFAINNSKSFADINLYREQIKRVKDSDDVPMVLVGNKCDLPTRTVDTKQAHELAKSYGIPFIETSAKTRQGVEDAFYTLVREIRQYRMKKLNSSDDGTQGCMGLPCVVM
Chain of NRAS G12C (P62937 whole entry): as the sequence (P62937 whole entry) above
Method in brief: as §1

[8] = target: NRAS Q61K (Homo sapiens (Human), UniProt P01111+P62937, Q61K); test: Ras-Raf (BRAF RBD) disruption / FRET / MOA assay, NRAS Q61K; conditions: NRAS Q61K; Ras-Raf disruption/FRET/MOA assay; read-out: IC50* NRAS Q61K FRET data
Chain of NRAS Q61K (P01111 whole entry Q61K): as the sequence (P01111 whole entry G12C) above, with C12G, Q61K counted along it
Chain of NRAS Q61K (P62937 whole entry): as the sequence (P62937 whole entry) above
Method in brief: as §2

[9] = target: NRAS WT (Homo sapiens (Human), UniProt P01111+P62937); test: Ras-Raf (BRAF RBD) disruption / FRET / MOA assay, NRAS WT; conditions: read-out: IC50* NRAS WT FRET data
Chain of NRAS WT (P01111 whole entry): as the sequence (P01111 whole entry G12C) above, with C12G counted along it
Chain of NRAS WT (P62937 whole entry): as the sequence (P62937 whole entry) above
Method in brief: as §2

Chain of K-Ras G12C (P01116-2 other isoform, or with tags, fused parts or gaps G12C): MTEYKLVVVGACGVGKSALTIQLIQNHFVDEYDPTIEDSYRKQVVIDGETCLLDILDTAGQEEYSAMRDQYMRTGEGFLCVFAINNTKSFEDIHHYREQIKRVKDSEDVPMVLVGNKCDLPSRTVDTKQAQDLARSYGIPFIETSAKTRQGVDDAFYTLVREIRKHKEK
Chain of K-Ras G12C (P62937 whole entry): as the sequence (P62937 whole entry) above

Structure (SMILES)	IC50 [1] [µM]	IC50 [2] [µM]	IC50 [3] [µM]	IC50 [4] [µM]	IC50 [5] [µM]	IC50 [6] [µM]	IC50 [7] [µM]	IC50 [8] [µM]	IC50 [9] [µM]
C=C(C)C(=O)N1CC(N(C)C(=O)N(C)[C@H](C(=O)N[C@H]2Cc3nc(cs3)-c3ccc4c(c3)c(c(-c3cccnc3[C@H](C)OC)n4CC)CC(C)(C)COC(=O)[C@@H]3CCCN(N3)C2=O)C(C)C)C1 (atropisomer, axis not shown) [Example A360]	0.1 to 1	0.1 to 1	1 to 10	0.1 to 1	1 to 10	0.1 to 1	0.1 to 1	0.1 to 1	0.1 to 1
C=CC(=O)N1CC[C@H](C(=O)N(C)[C@H](C(=O)N[C@H]2Cc3nc(cs3)-c3ccc4c(c3)c(c(-c3cc5c(nc3[C@H](C)OC)CCN(C)C5)n4CC)CC(C)(C)COC(=O)[C@@H]3CCCN(N3)C2=O)C(C)C)C1 (atropisomer, axis not shown) [Example A472]	0.1 to 1	1 to 10	> 10	1 to 10	1 to 10	1 to 10	0.1 to 1	1 to 10	1 to 10
C=CC(=O)N1CCO[C@@H]2CN(C(=O)N(C)[C@H](C(=O)N[C@H]3Cc4nc(cs4)-c4ccc5c(c4)c(c(-c4cccnc4[C@H](C)OC)n5CC)CC(C)(C)COC(=O)[C@@H]4CCCN(N4)C3=O)C(C)C)C[C@@H]21 (atropisomer, axis not shown) [Example A714]	0.1 to 1	0.01 to 0.1	1 to 10	0.1 to 1	1 to 10	0.1 to 1	0.1 to 1	0.1 to 1	0.1 to 1
C=CC(=O)N1CC(OC[C@H](C(=O)N[C@H]2Cc3cc(cc(C(F)F)c3)-c3ccc4c(c3)c(c(-c3cccnc3[C@H](C)OC)n4CC)CC(C)(C)COC(=O)[C@@H]3CCCN(N3)C2=O)C(C)C)C1 (atropisomer, axis not shown) [Example A345]	1 to 10	1 to 10	> 10	> 10	> 10	1 to 10	1 to 10	> 10	> 10
CCn1c(-c2cccnc2[C@H](C)OC)c2c3cc(ccc31)-c1cnc(o1)C[C@H](NC(=O)[C@@H](COC1CN(C(=O)C#CC(C)(C)N(C)C)C1)C(C)C)C(=O)N1CCC[C@H](N1)C(=O)OCC(C)(C)C2 (atropisomer, axis not shown) [Example A649]	0.01 to 0.1	> 10	> 10	> 10	> 10	> 10	0.01 to 0.1	> 10	> 10
CCn1c(-c2cccnc2[C@H](C)OC)c2c3cc(ccc31)-c1csc(n1)C[C@H](NC(=O)CN1CC[C@@]3(CCN(C(=O)C#CC(C)(C)N4CCC4)C3)C1)C(=O)N1CCC[C@H](N1)C(=O)OCC(C)(C)C2 (atropisomer, axis not shown) [Example A364]	0.1 to 1	1 to 10	> 10	1 to 10	1 to 10	1 to 10	0.1 to 1	1 to 10	1 to 10
C=CC(=O)N1CC(OC[C@H](C(=O)N[C@H]2Cc3cc(F)cc(c3)-c3ccc4c(c3)c(c(-c3cccnc3[C@H](C)OC)n4CC(F)(F)F)CC(C)(C)COC(=O)[C@@H]3CCCN(N3)C2=O)C(C)C)C1 (atropisomer, axis not shown) [Example A725]	0.1 to 1	0.1 to 1	> 10	1 to 10	1 to 10	0.1 to 1	0.1 to 1	1 to 10	1 to 10
C=CC(=O)N1C[C@@H](N(C)C(=O)N(C)[C@H](C(=O)N[C@H]2Cc3nc(cs3)-c3ccc4c(c3)c(c(-c3cccnc3[C@H](C)OC)n4CC)CC(C)(C)COC(=O)[C@@H]3CCCN(N3)C2=O)C(C)C)[C@@H](C)C1 (atropisomer, axis not shown) [Example A583]	0.1 to 1	0.1 to 1	1 to 10	1 to 10	1 to 10	0.1 to 1	0.1 to 1	0.1 to 1	0.1 to 1
CCn1c(-c2cccnc2[C@H](C)OC)c2c3cc(ccc31)-c1csc(n1)C[C@H](NC(=O)[C@H](C(C)C)N(C)C(=O)N(C)C1CN(C(=O)/C=C/CN(C)C)C1)C(=O)N1CCC[C@H](N1)C(=O)OCC(C)(C)C2 (atropisomer, axis not shown) [Example A361]	0.01 to 0.1	0.1 to 1	1 to 10	0.1 to 1	0.1 to 1	0.1 to 1	0.01 to 0.1	0.1 to 1	0.1 to 1
C=CC(=O)N1CCC2(CC1)CN(C(=O)N(C)[C@H](C(=O)N[C@H]1Cc3nc(cs3)-c3ccc4c(c3)c(c(-c3cccnc3[C@H](C)OC)n4CC)CC(C)(C)COC(=O)[C@@H]3CCCN(N3)C1=O)C(C)C)C2 (atropisomer, axis not shown) [Example A702]	0.1 to 1	0.1 to 1	1 to 10	0.1 to 1	1 to 10	0.01 to 0.1	0.1 to 1	0.01 to 0.1	0.1 to 1
C=CC(=O)N1CC2(CCN(C(=O)N(C)[C@H](C(=O)N[C@H]3Cc4nc(cs4)-c4ccc5c(c4)c(c(-c4cccnc4[C@H](C)OC)n5CC)CC(C)(C)COC(=O)[C@@H]4CCCN(N4)C3=O)C(C)C)CC2)C1 (atropisomer, axis not shown) [Example A394]	0.01 to 0.1	0.01 to 0.1	0.1 to 1	0.1 to 1	0.1 to 1	0.01 to 0.1	0.01 to 0.1	0.01 to 0.1	0.1 to 1
C=CC(=O)N1CC[C@H](C(=O)N(C)[C@H](C(=O)N[C@H]2Cc3cccc(c3)-c3ccc4c(c3)c(c(-c3cccnc3[C@H](C)OC)n4CC(F)F)CC(C)(C)COC(=O)[C@@H]3CCCN(N3)C2=O)C(C)C)C1 (atropisomer, axis not shown) [Example A335]	0.1 to 1	1 to 10	> 10	1 to 10	1 to 10	1 to 10	0.1 to 1	1 to 10	1 to 10
C=CC(=O)N1CC(N2CCN(C(=O)N(C)[C@H](C(=O)N[C@H]3Cc4nc(cs4)-c4ccc5c(c4)c(c(-c4cccnc4[C@H](C)OC)n5CC)CC(C)(C)COC(=O)[C@@H]4CCCN(N4)C3=O)C(C)C)CC2)C1 (atropisomer, axis not shown) [Example A668]	0.01 to 0.1	0.01 to 0.1	1 to 10	0.1 to 1	1 to 10	0.01 to 0.1	0.01 to 0.1	0.01 to 0.1	0.1 to 1
C=CC(=O)N1CCN(C(=O)N(C)[C@H](C(=O)N[C@H]2Cc3nc(cs3)-c3ccc4c(c3)c(c(-c3cccnc3[C@H](C)OC)n4CC)CC(C)(C)COC(=O)[C@@H]3CCCN(N3)C2=O)C(C)C)[C@@H]2CC[C@@H]21 (atropisomer, axis not shown) [Example A718]	0.1 to 1	0.01 to 0.1	1 to 10	0.1 to 1	0.1 to 1	0.01 to 0.1	0.1 to 1	0.01 to 0.1	0.1 to 1
